Results as given in publication PMC5392334, “Discovery and characterization of a novel irreversible EGFR mutants selective and potent kinase inhibitor CHMFL-EGFR-26 with a distinct binding mode” (Oncotarget, 2017).
pIC50: −log10 of the molar value.

Legend:
[1] = target: T1, ACVR2A (Homo sapiens, UniProt P27037); test: KinomeScan; type: binding; conditions: read-out: % control
T1 construct: purchased DiscoveRx KINOMEscan

[2] = target: T2, ALK(L1196M) (Homo sapiens, UniProt Q9UM73, L1196M); test: KinomeScan; type: binding; conditions: read-out: % control
T2 construct: purchased DiscoveRx KINOMEscan

[3] = target: T3, BMPR1B (Homo sapiens, UniProt O00238); test: KinomeScan; type: binding; conditions: read-out: % control
T3 construct: purchased DiscoveRx KINOMEscan

[4] = target: T4, BMPR2 (Homo sapiens, UniProt Q13873); test: KinomeScan; type: binding; conditions: read-out: % control
T4 construct: purchased DiscoveRx KINOMEscan

[5] = target: T5, CAMK1D (Homo sapiens, UniProt Q8IU85); test: KinomeScan; type: binding; conditions: read-out: % control
T5 construct: purchased DiscoveRx KINOMEscan

[6] = target: T6, CAMK4 (Homo sapiens, UniProt Q16566); test: KinomeScan; type: binding; conditions: read-out: % control
T6 construct: purchased DiscoveRx KINOMEscan
T6 sequence (Q16566 whole entry): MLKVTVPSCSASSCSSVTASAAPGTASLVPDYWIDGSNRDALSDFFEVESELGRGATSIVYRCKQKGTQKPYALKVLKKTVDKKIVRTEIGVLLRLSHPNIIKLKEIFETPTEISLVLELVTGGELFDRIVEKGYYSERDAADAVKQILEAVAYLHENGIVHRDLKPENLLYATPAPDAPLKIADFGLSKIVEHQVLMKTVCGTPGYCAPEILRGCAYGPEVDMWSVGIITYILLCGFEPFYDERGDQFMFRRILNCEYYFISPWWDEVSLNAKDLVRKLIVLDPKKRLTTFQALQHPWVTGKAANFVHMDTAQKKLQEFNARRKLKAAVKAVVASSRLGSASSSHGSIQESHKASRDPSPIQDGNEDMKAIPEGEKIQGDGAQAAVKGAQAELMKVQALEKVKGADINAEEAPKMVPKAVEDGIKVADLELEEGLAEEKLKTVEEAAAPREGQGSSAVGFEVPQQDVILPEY

[7] = target: T7, CAMKK1 (Homo sapiens, UniProt Q8N5S9); test: KinomeScan; type: binding; conditions: read-out: % control
T7 construct: purchased DiscoveRx KINOMEscan

[8] = target: T8, CLK3 (Homo sapiens, UniProt P49761); test: KinomeScan; type: binding; conditions: read-out: % control
T8 construct: purchased DiscoveRx KINOMEscan

[9] = target: T9, CSNK1A1 (Homo sapiens, UniProt P48729); test: KinomeScan; type: binding; conditions: read-out: % control
T9 construct: purchased DiscoveRx KINOMEscan

[10] = target: T10, CSNK1E (Homo sapiens, UniProt P49674); test: KinomeScan; type: binding; conditions: read-out: % control
T10 construct: purchased DiscoveRx KINOMEscan
T10 sequence (P49674 whole entry): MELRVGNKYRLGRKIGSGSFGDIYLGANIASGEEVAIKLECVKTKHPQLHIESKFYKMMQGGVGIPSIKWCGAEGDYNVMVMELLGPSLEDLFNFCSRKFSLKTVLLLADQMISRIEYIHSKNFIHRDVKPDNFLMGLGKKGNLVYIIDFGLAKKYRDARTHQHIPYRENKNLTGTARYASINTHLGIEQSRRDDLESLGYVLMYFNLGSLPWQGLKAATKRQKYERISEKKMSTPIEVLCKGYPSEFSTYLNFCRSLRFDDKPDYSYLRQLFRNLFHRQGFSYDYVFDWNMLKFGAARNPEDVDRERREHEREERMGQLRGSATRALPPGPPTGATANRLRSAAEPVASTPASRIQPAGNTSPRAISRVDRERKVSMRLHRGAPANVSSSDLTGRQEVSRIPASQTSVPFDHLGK

[11] = target: T11, DCAMKL2 (Homo sapiens, UniProt Q8N568); test: KinomeScan; type: binding; conditions: read-out: % control
T11 construct: purchased DiscoveRx KINOMEscan
T11 sequence (Q8N568 whole entry): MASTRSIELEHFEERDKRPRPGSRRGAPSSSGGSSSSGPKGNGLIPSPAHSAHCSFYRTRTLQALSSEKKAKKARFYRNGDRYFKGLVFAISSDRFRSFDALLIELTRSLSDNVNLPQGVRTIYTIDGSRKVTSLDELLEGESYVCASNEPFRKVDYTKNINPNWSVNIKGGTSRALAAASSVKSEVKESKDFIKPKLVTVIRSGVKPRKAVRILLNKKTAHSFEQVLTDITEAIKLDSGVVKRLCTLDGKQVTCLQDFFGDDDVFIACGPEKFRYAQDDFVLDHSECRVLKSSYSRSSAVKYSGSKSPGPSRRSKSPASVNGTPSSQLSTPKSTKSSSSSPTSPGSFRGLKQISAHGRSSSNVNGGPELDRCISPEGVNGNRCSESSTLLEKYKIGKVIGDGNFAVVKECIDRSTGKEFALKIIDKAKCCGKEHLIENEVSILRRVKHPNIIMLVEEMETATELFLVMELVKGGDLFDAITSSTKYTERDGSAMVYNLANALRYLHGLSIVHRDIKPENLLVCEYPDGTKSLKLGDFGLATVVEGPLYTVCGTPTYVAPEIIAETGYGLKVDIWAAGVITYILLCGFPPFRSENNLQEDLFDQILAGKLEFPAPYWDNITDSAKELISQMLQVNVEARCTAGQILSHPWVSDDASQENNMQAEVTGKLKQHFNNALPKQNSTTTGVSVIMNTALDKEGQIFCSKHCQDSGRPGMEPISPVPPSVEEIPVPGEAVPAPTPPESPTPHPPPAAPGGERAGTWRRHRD

[12] = target: T12, DYRK1B (Homo sapiens, UniProt Q9Y463); test: KinomeScan; type: binding; conditions: read-out: % control
T12 construct: purchased DiscoveRx KINOMEscan

[13] = target: T13, DYRK2 (Homo sapiens, UniProt Q92630); test: KinomeScan; type: binding; conditions: read-out: % control
T13 construct: purchased DiscoveRx KINOMEscan

[14] = system: EGFR(L747-T751del,Sins); test: KinomeScan; type: binding; conditions: 1μM
[15] = target: T14, EGFR(S752-I759del) (Homo sapiens, UniProt P00533, DEL752-759); test: KinomeScan; type: binding; conditions: read-out: % control
T14 construct: purchased DiscoveRx KINOMEscan
T14 sequence (P00533 with tags, fused parts or gaps DEL752-759 limits assumed): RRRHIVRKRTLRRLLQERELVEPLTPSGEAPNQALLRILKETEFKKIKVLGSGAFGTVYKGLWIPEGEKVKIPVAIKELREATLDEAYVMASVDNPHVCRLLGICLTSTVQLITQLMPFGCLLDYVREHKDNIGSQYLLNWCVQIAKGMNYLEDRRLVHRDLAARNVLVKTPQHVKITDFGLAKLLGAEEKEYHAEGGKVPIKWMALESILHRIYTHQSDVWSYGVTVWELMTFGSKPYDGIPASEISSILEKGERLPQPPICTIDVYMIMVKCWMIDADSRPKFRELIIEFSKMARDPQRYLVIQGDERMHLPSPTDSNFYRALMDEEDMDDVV

[16] = target: T15, EPHA1 (Homo sapiens, UniProt P21709); test: KinomeScan; type: binding; conditions: read-out: % control
T15 construct: purchased DiscoveRx KINOMEscan

[17] = target: T16, EPHA3 (Homo sapiens, UniProt P29320); test: KinomeScan; type: binding; conditions: read-out: % control
T16 construct: purchased DiscoveRx KINOMEscan

[18] = target: T17, EPHB4 (Homo sapiens, UniProt P54760); test: KinomeScan; type: binding; conditions: read-out: % control
T17 construct: purchased DiscoveRx KINOMEscan

[19] = target: T18, ERK2 (Homo sapiens, UniProt P28482); test: KinomeScan; type: binding; conditions: read-out: % control
T18 construct: purchased DiscoveRx KINOMEscan

[20] = target: T19, FAK (Homo sapiens, UniProt Q05397); test: KinomeScan; type: binding; conditions: read-out: % control
T19 construct: purchased DiscoveRx KINOMEscan

[21] = target: T20, FGFR2 (Homo sapiens, UniProt P21802); test: KinomeScan; type: binding; conditions: read-out: % control
T20 construct: purchased DiscoveRx KINOMEscan

[22] = target: T21, FRK (Homo sapiens, UniProt P42685); test: KinomeScan; type: binding; conditions: read-out: % control
T21 construct: purchased DiscoveRx KINOMEscan

[23] = target: T22, GCN2(Kin.Dom.2,S808G) (Homo sapiens, UniProt Q9P2K8, S808G); test: KinomeScan; type: binding; conditions: read-out: % control
T22 construct: GCN2(Kin.Dom.2,S808G); purchased DiscoveRx KINOMEscan

[24] = target: T23, GSK3A (Homo sapiens, UniProt P49840); test: KinomeScan; type: binding; conditions: read-out: % control
T23 construct: purchased DiscoveRx KINOMEscan

[25] = target: T24, IGF1R (Homo sapiens, UniProt P08069); test: KinomeScan; type: binding; conditions: read-out: % control
T24 construct: purchased DiscoveRx KINOMEscan

[26] = target: T25, INSRR (Homo sapiens, UniProt P14616); test: KinomeScan; type: binding; conditions: read-out: % control
T25 construct: purchased DiscoveRx KINOMEscan

[27] = target: T26, IRAK3 (Homo sapiens, UniProt Q9Y616); test: KinomeScan; type: binding; conditions: read-out: % control
T26 construct: purchased DiscoveRx KINOMEscan

[28] = target: T27, MAPKAPK2 (Homo sapiens, UniProt P49137); test: KinomeScan; type: binding; conditions: read-out: % control
T27 construct: purchased DiscoveRx KINOMEscan
T27 sequence (P49137 whole entry): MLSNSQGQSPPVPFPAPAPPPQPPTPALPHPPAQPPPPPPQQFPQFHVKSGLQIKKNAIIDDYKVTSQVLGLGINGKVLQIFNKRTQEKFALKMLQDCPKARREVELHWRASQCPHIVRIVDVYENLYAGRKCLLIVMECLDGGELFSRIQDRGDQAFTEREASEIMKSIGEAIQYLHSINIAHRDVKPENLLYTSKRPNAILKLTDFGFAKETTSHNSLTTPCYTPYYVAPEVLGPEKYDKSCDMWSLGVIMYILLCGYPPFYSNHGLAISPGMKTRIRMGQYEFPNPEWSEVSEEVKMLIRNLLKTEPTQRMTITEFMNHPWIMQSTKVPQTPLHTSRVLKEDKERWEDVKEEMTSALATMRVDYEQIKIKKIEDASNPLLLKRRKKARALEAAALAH

[29] = target: T28, MST1R (Homo sapiens, UniProt Q04912); test: KinomeScan; type: binding; conditions: read-out: % control
T28 construct: purchased DiscoveRx KINOMEscan
T28 sequence (Q04912 25-1400): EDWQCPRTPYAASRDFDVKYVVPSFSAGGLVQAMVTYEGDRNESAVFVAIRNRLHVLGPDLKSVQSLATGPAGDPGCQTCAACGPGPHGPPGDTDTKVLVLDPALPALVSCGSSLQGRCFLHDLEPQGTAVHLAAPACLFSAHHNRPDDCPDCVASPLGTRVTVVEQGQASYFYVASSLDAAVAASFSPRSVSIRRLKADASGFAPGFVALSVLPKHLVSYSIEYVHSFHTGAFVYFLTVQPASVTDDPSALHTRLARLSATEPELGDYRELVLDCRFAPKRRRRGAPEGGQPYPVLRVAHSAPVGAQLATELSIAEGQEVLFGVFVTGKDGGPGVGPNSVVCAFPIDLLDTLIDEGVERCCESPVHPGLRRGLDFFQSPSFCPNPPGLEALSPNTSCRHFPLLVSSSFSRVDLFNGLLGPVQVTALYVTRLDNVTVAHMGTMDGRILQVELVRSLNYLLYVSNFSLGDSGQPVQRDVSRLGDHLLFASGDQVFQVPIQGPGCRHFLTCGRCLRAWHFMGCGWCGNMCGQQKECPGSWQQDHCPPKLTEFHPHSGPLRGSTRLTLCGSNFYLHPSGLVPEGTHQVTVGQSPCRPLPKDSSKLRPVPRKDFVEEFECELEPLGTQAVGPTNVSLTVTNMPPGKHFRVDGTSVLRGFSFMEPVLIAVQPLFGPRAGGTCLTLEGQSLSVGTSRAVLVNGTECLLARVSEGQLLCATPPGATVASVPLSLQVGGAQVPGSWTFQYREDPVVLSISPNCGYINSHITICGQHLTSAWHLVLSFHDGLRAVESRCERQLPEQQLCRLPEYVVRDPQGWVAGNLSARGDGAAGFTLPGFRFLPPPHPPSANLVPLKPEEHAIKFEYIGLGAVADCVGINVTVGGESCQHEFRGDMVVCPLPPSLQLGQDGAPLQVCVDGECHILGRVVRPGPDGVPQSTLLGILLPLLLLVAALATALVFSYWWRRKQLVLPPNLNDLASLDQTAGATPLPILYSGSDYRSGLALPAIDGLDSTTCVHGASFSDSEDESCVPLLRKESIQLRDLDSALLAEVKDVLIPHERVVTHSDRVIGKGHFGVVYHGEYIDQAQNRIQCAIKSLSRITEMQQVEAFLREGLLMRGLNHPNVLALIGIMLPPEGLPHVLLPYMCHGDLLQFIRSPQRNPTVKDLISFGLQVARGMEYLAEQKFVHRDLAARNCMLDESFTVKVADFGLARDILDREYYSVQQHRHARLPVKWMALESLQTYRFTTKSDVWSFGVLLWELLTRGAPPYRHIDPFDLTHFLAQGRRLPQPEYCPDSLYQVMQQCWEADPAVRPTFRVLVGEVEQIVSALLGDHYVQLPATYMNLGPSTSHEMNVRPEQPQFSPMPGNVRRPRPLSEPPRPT

[30] = target: T29, MST4 (Homo sapiens, UniProt Q9P289); test: KinomeScan; type: binding; conditions: read-out: % control
T29 construct: purchased DiscoveRx KINOMEscan

[31] = target: T30, NEK10 (Homo sapiens, UniProt Q6ZWH5); test: KinomeScan; type: binding; conditions: read-out: % control
T30 construct: purchased DiscoveRx KINOMEscan

[32] = target: T31, NEK6 (Homo sapiens, UniProt Q9HC98); test: KinomeScan; type: binding; conditions: read-out: % control
T31 construct: purchased DiscoveRx KINOMEscan

[33] = target: T32, OSR1 (Homo sapiens, UniProt O95747); test: KinomeScan; type: binding; conditions: read-out: % control
T32 construct: purchased DiscoveRx KINOMEscan

[34] = target: T33, p38-gamma (Homo sapiens, UniProt P53778); test: KinomeScan; type: binding; conditions: read-out: % control
T33 construct: purchased DiscoveRx KINOMEscan

[35] = target: T34, PIK3CA(E545A) (Homo sapiens, UniProt P42336, E545A); test: KinomeScan; type: binding; conditions: read-out: % control
T34 construct: purchased DiscoveRx KINOMEscan

[36] = target: T35, PIK3CG (Homo sapiens, UniProt P48736); test: KinomeScan; type: binding; conditions: read-out: % control
T35 construct: purchased DiscoveRx KINOMEscan

[37] = target: T36, PIP5K1A (Homo sapiens, UniProt Q99755); test: KinomeScan; type: binding; conditions: read-out: % control
T36 construct: purchased DiscoveRx KINOMEscan
T36 sequence (Q99755 whole entry): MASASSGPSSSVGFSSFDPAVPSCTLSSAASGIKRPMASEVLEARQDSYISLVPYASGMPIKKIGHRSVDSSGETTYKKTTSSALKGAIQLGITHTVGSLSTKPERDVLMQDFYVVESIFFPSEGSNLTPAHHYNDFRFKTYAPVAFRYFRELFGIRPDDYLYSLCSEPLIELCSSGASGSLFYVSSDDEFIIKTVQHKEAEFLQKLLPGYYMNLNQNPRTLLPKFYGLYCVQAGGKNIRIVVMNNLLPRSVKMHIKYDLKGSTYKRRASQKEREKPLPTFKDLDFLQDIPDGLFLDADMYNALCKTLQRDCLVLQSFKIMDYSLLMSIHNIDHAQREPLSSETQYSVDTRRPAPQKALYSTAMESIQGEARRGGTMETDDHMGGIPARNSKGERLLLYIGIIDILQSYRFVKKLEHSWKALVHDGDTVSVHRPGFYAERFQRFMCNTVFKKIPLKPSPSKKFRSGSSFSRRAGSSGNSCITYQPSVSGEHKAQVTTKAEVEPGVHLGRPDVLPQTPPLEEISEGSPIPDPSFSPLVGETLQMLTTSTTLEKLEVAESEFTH

[38] = target: T37, RSK2(Kin.Dom.2-C-terminal) (Homo sapiens, UniProt P51812); test: KinomeScan; type: binding; conditions: read-out: % control
T37 construct: RSK2(Kin.Dom.2-C-terminal); purchased DiscoveRx KINOMEscan

[39] = target: T38, SGK2 (Homo sapiens, UniProt Q9HBY8); test: KinomeScan; type: binding; conditions: read-out: % control
T38 construct: purchased DiscoveRx KINOMEscan

[40] = target: T39, TIE2 (Homo sapiens, UniProt Q02763); test: KinomeScan; type: binding; conditions: read-out: % control
T39 construct: purchased DiscoveRx KINOMEscan

[41] = target: T40, WNK1 (Homo sapiens, UniProt Q9H4A3); test: KinomeScan; type: binding; conditions: read-out: % control
T40 construct: purchased DiscoveRx KINOMEscan

[42] = target: T41, YANK2 (Homo sapiens, UniProt Q9NY57); test: KinomeScan; type: binding; conditions: read-out: % control
T41 construct: purchased DiscoveRx KINOMEscan
T41 sequence (Q9NY57 whole entry): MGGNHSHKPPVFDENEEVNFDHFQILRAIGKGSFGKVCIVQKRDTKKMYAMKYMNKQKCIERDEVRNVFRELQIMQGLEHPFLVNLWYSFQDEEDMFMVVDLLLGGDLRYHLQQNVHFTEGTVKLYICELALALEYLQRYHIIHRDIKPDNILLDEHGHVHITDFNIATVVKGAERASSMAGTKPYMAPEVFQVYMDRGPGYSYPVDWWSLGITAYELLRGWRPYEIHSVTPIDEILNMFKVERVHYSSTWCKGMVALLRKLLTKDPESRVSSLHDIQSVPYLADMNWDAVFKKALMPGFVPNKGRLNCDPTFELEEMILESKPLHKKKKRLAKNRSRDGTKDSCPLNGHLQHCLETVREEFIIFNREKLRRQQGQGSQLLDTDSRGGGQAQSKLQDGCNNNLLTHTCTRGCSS

[43] = system: BaF3-IGF1R; test: Anti-proliferative effects, IGF1R transformed isogenic BaF3 cells; type: cell-based; conditions: Mus musculus, read-out: IC50 (anti-proliferative; GI50)

C=CC(=O)N1CCC[C@@H](n2nc(-c3ccc(OCc4cccc(C)n4)c(Cl)c3)c3c(N)ncnc32)C1 [CHMFL-EGFR-26]
remaining binding at 1 µM [1]: 89% | remaining binding at 1 µM [2]: 100% | remaining binding at 1 µM [3]: 97% | remaining binding at 1 µM [4]: 100% | remaining binding at 1 µM [5]: 91% | remaining binding at 1 µM [6]: 100% | remaining binding at 1 µM [7]: 88% | remaining binding at 1 µM [8]: 100% | remaining binding at 1 µM [9]: 100% | remaining binding at 1 µM [10]: 9.1% | remaining binding at 1 µM [11]: 95% | remaining binding at 1 µM [12]: 85% | remaining binding at 1 µM [13]: 86% | % control [14]: 21% | remaining binding at 1 µM [15]: 12% | remaining binding at 1 µM [16]: 42% | remaining binding at 1 µM [17]: 89% | remaining binding at 1 µM [18]: 100% | remaining binding at 1 µM [19]: 94% | remaining binding at 1 µM [20]: 90% | remaining binding at 1 µM [21]: 100% | remaining binding at 1 µM [22]: 96% | remaining binding at 1 µM [23]: 90% | remaining binding at 1 µM [24]: 100% | remaining binding at 1 µM [25]: 100% | remaining binding at 1 µM [26]: 100% | remaining binding at 1 µM [27]: 94% | remaining binding at 1 µM [28]: 89% | remaining binding at 1 µM [29]: 100% | remaining binding at 1 µM [30]: 99% | remaining binding at 1 µM [31]: 99% | remaining binding at 1 µM [32]: 100% | remaining binding at 1 µM [33]: 95% | remaining binding at 1 µM [34]: 100% | remaining binding at 1 µM [35]: 100% | remaining binding at 1 µM [36]: 100% | remaining binding at 1 µM [37]: 100% | remaining binding at 1 µM [38]: 100% | remaining binding at 1 µM [39]: 100% | remaining binding at 1 µM [40]: 78% | remaining binding at 1 µM [41]: 100% | remaining binding at 1 µM [42]: 5.8% | pIC50 [43]: 5.44
